Like-named read-outs stand apart in the source and are kept apart here.
Experiments:
[1] = test system: Human red blood cells (RBC); assay: In vitro haemolysis; assay type: cell-based; conditions: 5 mg/mL, 37° C., 60 min
Description: For example suspended RBCs isolated from whole human blood may be mixed with non-formulated cargo molecules or test formulations comprising the cargo molecule at a given final concentration with respect to the cargo molecule incubated at 37° C. for 60 minutes, and centrifuged to remove intact RBCs. […] Human red blood cells (RBC) were isolated by centrifugation from whole blood collected in vaccutainer containing EDTA. […] Freeze-dried formulations were reconstituted in water and then diluted to the desired concentrations with PBS.

[2] = Extrapolation to human IV 2 compartmental PK parameters; conditions: estimated human iv, PPI 1501 by rat difference ratio, solution from literature oral PK
Text: Both sets of rodent data were then extrapolated using published human FLU PK parameters to estimate the PK of FLU post IV administration of PPI 1501 or non-formulated FLU to humans.
Assuming the plasma PK profile of FLU mediated by IV PPI 1501 in the rat is translatable to human, i.e. that the same PK parameter difference ratios for FLU in PPI 1501 observed in the rat apply in humans, then the human IV PK parameters for FLU in PPI 1501 can be estimated. This may be achieved by simple multiplication of the difference ratios provided in Table 41 (last column) to again obtain the comparative human PK parameter values FLU in PPI 1501 versus those obtained from injection of the simple solution; such data may also be compared to data obtained by injecting humans with the prodrug FA (Table 42).
The human IV PK parameters of FLU in solution were estimated based on the oral PK parameters of FLU and its estimated oral bioavailability (project 1 report, Duan, 2015, Table 42, ref 3-8).

[3] = FLU solution, rats, IV […], NCA, cited from earlier work
[4] = Literature IV PK of FLU solution in rats (Park and Kim; Knihinicki et al); assay type: in vivo; conditions: Park and Kim data fitted to 2 compartmental model
Text: The fitted results obtained in the JRF study were then compared to those in the literature, generated after administering a non-micellar low concentration simple FLU solution IV to rats. This was undertaken to determine potential differences in FLU pharmacokinetics induced by the micellar formulation.
The results from the JRF study were then compared to literature values for FLU PK administered as an IV solution as generated by Park and Kim (1) and Knihinicki et al (2); the comparison is shown in Table 39.
For comparative purposes, the rat PK data for a FLU solution generated by Park and Kim (1) were also fitted to the 2 compartmental model (FIG. 22 and Table 41).

[5] = human iv FA, values from project 1 report; cited from earlier work

CC(C(=O)O)c1ccc(-c2ccccc2)c(F)c1 (stereo not drawn) [FLU, flurbiprofen]
absorbance at 540 nm [1]: 0.54±0.03 | percent haemolysis ([1]; triplicate ± standard deviation): 92.1±17.2% | CL [2]: 0.967 L/h | CL2 [2]: 0.343 L/h | MRT (est. based on 2 compartment model) [2]: 7.43 h | V [2]: 4.984 L | V2 [2]: 2.199 L | Vss ([3]; Knihinicki et al): 0.22 L/kg | Vz ([3]; Knihinicki et al): 0.239 L/kg | t1/2 ([3]; Knihinicki et al): 3.07 h | Vss ([3]; Park & Kim): 0.15678 L/kg | Vz ([3]; Park & Kim): 0.19231 L/kg | t1/2 ([3]; Park & Kim): 2.78 h | t1/2Alpha ([4]; IV […]): 5.4 min | t1/2Beta ([4]; IV […]): 2.73 h | AUC(0-inf) ([4]; rat, plasma, IV 2.5 mg/kg): 51400 ng·h/mL | AUC(0-t) ([4]; rat, plasma, IV 2.5 mg/kg): 45300 ng·h/mL | C0 ([4]; rat, plasma, IV 2.5 mg/kg): 49800 ng/mL | MRT ([4]; rat, plasma, IV 2.5 mg/kg): 3.57 h | clearance ([4]; rat, plasma, IV 2.5 mg/kg): 0.81 mL/min/kg | Vd ([4]; rat, plasma, IV 2.5 mg/kg, read-out: Vss): 0.174 L/kg

flurbiprofen axetil [FA]
CL [5]: 1.14 L/h | CL2 [5]: 4.40 L/h | Ka [5]: 58 h⁻¹ | MRT (est. based on 2 compartment model) [5]: 7.36 h | V [5]: 5.11 L | V2 [5]: 3.28 L
